Test results reported in paper PMC8703531, “Structure of ABCB1/P-Glycoprotein in the Presence of the CFTR Potentiator Ivacaftor” (Membranes, 2021).
pKd: −log10 of the molar value.

Target: T1, murine P-glycoprotein (P-gp, ABCB1; abcb1a, mdr3) (Mus musculus, UniProt P21447)
T1 construct: opti-mdr3 gene product expressed in P. pastoris, purified in DDM
Assay: thermostability shift of purified protein (static light scattering, tryptophan fluorescence, CPM dye) giving KD; cryo-EM with additional density (map a)
Type: binding

T1 sequence (P21447 whole entry): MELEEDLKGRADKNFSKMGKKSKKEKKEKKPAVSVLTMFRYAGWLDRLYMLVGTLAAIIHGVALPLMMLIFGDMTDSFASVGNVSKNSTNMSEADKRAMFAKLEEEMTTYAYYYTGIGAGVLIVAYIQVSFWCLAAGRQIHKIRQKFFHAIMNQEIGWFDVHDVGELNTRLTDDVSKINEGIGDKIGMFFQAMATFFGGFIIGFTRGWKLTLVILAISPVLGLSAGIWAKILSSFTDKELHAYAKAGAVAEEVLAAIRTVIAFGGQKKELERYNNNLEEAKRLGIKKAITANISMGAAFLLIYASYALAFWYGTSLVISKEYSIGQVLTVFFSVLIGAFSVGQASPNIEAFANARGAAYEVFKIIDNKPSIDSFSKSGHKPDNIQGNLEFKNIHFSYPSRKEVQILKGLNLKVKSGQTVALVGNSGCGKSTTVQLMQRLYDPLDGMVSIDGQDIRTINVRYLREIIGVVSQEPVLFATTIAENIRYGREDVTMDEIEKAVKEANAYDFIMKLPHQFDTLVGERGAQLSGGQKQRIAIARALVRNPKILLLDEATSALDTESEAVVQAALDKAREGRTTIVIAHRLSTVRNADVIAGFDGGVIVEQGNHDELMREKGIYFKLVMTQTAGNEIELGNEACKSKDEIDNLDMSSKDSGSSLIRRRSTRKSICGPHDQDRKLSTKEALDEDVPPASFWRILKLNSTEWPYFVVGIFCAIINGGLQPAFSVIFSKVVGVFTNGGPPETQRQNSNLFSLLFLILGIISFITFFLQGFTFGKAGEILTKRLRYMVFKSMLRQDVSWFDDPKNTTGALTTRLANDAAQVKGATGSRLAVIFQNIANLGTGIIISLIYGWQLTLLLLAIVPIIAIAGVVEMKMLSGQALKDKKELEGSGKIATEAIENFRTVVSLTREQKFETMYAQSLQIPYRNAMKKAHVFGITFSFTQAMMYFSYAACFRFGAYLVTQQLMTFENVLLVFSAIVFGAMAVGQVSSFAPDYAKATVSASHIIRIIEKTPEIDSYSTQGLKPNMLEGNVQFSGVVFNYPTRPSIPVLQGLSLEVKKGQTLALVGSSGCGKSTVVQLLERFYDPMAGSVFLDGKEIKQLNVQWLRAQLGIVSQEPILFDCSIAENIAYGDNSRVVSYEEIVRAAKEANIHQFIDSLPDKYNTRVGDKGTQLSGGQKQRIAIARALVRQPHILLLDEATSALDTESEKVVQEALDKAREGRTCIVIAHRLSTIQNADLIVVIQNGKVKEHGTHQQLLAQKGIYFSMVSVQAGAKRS

pKd: 6.70
SMILES: CC(C)(C)c1cc(C(C)(C)C)c(NC(=O)c2c[nH]c3ccccc3c2=O)cc1O [ivacaftor]
